US7872004B2, “6-(heterocyclyl-substituted benzyl)-4-oxoquinoline compound and use thereof as HIV integrase inhibitor” (Japan Tobacco Inc., priority 2006, dated 2011)

Target: T1, HIV integrase (Human immunodeficiency virus type 1 group M subtype B, UniProt P12497, F1332H)
T1 construct: HIV integrase full length gene; made in house; host or cells: Escherichia coli BL21(DE3)
Assay: Determination of enzyme (HIV integrase) inhibitory activity
Format: biochemical, HIV (Human Immunodeficiency Virus (type 1))
Conditions: recombinant integrase protein (F185H), strand transfer plate assay, absorbance at 450 nm
From the text: The following explains evaluation methods of the HIV integrase inhibitory activity of the compound of the present invention.
(i) Construction of Recombinant Integrase Gene Expression System
HIV integrase full length gene (J. Virol., 67, 425-437 (1993)) in which phenylalanine at codon 185 was substituted by histidine, was inserted between the restriction enzyme NdeI and XhoI sites of plasmid pET21a(+) (Novagen), whereby an integrase expression vector pET21a-IN-F185H was constructed.
(ii) Production and Purification of Integrase Protein
Escherichia coli recombinant BL21(DE3) transformed with plasmid pET21a-IN-F185H obtained in (i) was shake cultured at 30° C. in a liquid medium containing ampicillin. When the culture reached the logarithmic growth phase, isopropyl-β-D-thiogalactopyranoside was added to promote expression of integrase gene. The culture was continued for 3 hr to promote accumulation of the integrase protein. The recombinant E. coli was collected in pellets by centrifugal separation and preserved at −80° C.
The E. coli was suspended in Lysis buffer ([…] HEPES (pH 7.5), 5 mM DTT, 10 mM CHAPS, 10% glycerol) containing 1M sodium chloride and subjected to repeat pressurization and depressurization for rupture, and centrifugal separation at 4° C., 40,000×g, 60 min to recover a water-soluble fraction (supernatant). This was diluted 10-fold with Lysis buffer free of sodium chloride, mixed with SP-Sepharose (GE healthcare Bioscience) and stirred at 4° C. for 60 min to allow adsorption of integrase protein to the resin. The resin was washed with Lysis buffer containing 100 mM sodium chloride and the integrase protein was eluted with Lysis buffer containing 1M sodium chloride.
The eluted integrase protein solution was subjected to a Superdex 75 (GE healthcare Bioscience) column for gel filtration. The protein was eluted with Lysis buffer containing 1M sodium chloride.
The obtained fractions of the integrase protein were collected and preserved at −80° C.
(iii) Preparation of DNA Solution
The following DNA synthesized by Greiner or FASMAC was dissolved in TE buffer (10 mM Tris-hydrochloric acid (pH 8.0), 1 mM EDTA) and mixed with donor DNA, target DNA, and each complementary strand (+ and − strands) to 1 μM. The mixture was heated at 95° C. for 5 min, 80° C. for 10 min, 70° C. for 10 min, 60° C. for 10 min, 50° C. for 10 min and 40° C. for 10 min and kept at 25° C. to give a double stranded DNA, which was used for the test.
(iv) Determination of Enzyme (HIV Integrase) Inhibitory Activity
The donor DNA was diluted with TE buffer to 10 nM (or 5 nM), of which 50 μl was added to each well of streptavidin-coated microtiter plate (Roche) and allowed to adsorb at 37° C. for 60 min. The plate was washed with phosphate buffer (Dulbecco's PBS, Sanko Junyaku Co., Ltd.) containing 0.1% Tween 20 and phosphate buffer. Then, an enzyme reaction mixture (70 μl), a test substance (10 μl) diluted with the enzyme reaction mixture and 100 μg/ml (or 64 μg/ml (2 μM)) integrase protein (10 μl) were added to each well and reacted at 37° C. for 60 min.
Composition of the enzyme reaction mixture: 30 mM MOPS (3-morpholinopropanesulfonic acid), 5 mM magnesium chloride, 3 mM DTT (dithiothreitol), 0.1 mg/ml BSA (bovine serum albumin), 5% glycerol, 10% DMSO (dimethyl sulfoxide), 0.01% Tween 20.
Then, 50 nM (or 25 nM) target DNA (10 μl) was added, reacted at 37° C. for 10 min and washed with phosphate buffer containing 0.1% Tween 20 to stop the reaction.
Then, 100 mU/ml peroxidase labeled anti-digoxigenin antibody solution (Roche, 100 μl) was added, and the mixture was reacted at 37° C. for 60 min, followed by washing with phosphate buffer containing 0.1% Tween 20.
A peroxidase color solution (Bio Rad, 100 μl) was added and allowed to react at room temperature for 4 min (or 3 min). The color reaction was stopped by adding IN sulfuric acid (100 μl). The absorbance at 450 nm was measured. […]

CCc1cc2c(cc1Cc1cc(N3CCOCC3)cc(Cl)c1F)c(=O)c(C(=O)O)cn2[C@H](CO)COC [Example 20, 6-[3-chloro-2-fluoro-5-(morpholin-4-yl)benzyl]-7-ethyl-1-[(R)-2-hydroxy-1-(methoxymethyl)ethyl]-4-oxo-1,4-dihydroquinoline-3-carboxylic acid] showed an IC50 of less than 10 nM.
With COc1cc2c(cc1Cc1cc(N3CCCS3(=O)=O)cc(Cl)c1F)c(=O)c(C(=O)O)cn2[C@H](CO)C(C)C [Example 21, 6-[3-chloro-5-(1,1-dioxoisothiazolidin-2-yl)-2-fluorobenzyl]-1-((S)-1-hydroxymethyl-2-methylpropyl)-7-methoxy-4-oxo-1,4-dihydroquinoline-3-carboxylic acid] the IC50 was less than 10 nM.
In the case of COC[C@@H](CO)n1cc(C(=O)O)c(=O)c2cc(Cc3cc(N4CCOCC4)cc(Cl)c3F)c(OC)cc21 [Example 22, 6-[3-chloro-2-fluoro-5-(morpholin-4-yl)benzyl]-1-[(R)-2-hydroxy-1-(methoxymethyl)ethyl]-7-methoxy-4-oxo-1,4-dihydroquinoline-3-carboxylic acid], the IC50 is reported as less than 10 nM.
For CCc1cc2c(cc1Cc1cc(N3CCOCC3)cc(Cl)c1F)c(=O)c(C(=O)O)cn2[C@H](CO)C(C)C [Example 23, 6-[3-chloro-2-fluoro-5-(morpholin-4-yl)benzyl]-7-ethyl-1-((S)-1-hydroxymethyl-2-methylpropyl)-4-oxo-1,4-dihydroquinoline-3-carboxylic acid], the IC50 was less than 10 nM.
In the case of CCc1cc2c(cc1Cc1cc(N3CCCC3=O)cc(Cl)c1F)c(=O)c(C(=O)O)cn2[C@H](CO)C(C)C [Example 24, 6-[3-chloro-2-fluoro-5-(2-oxopyrrolidin-1-yl)benzyl]-7-ethyl-1-((S)-1-hydroxymethyl-2-methylpropyl)-4-oxo-1,4-dihydroquinoline-3-carboxylic acid], the IC50 is reported as 10 to 100 nM.
Compound COc1cc2c(cc1Cc1cc(N3CCCC3=O)c(F)c(Cl)c1F)c(=O)c(C(=O)O)cn2[C@H](CO)C(C)C [Example 25, 6-[3-chloro-2,4-difluoro-5-(2-oxopyrrolidin-1-yl)benzyl]-1-((S)-1-hydroxymethyl-2-methylpropyl)-7-methoxy-4-oxo-1,4-dihydroquinoline-3-carboxylic acid] has an IC50 of less than 10 nM.
CCc1cc2c(cc1Cc1cc(N3CCCC3=O)c(F)c(Cl)c1F)c(=O)c(C(=O)O)cn2[C@H](CO)C(C)C [Example 26, 6-[3-chloro-2,4-difluoro-5-(2-oxopyrrolidin-1-yl)benzyl]-7-ethyl-1-((S)-1-hydroxymethyl-2-methylpropyl)-4-oxo-1,4-dihydroquinoline-3-carboxylic acid] gave an IC50 of less than 10 nM.
In the case of COc1cc2c(cc1Cc1cc(N3CCSCC3)cc(Cl)c1F)c(=O)c(C(=O)O)cn2[C@H](CO)C(C)C [Example 27, 6-[3-chloro-2-fluoro-5-(thiomorpholin-4-yl)benzyl]-1-((S)-1-hydroxymethyl-2-methylpropyl)-7-methoxy-4-oxo-1,4-dihydroquinoline-3-carboxylic acid], the IC50 is reported as less than 10 nM.
COc1cc2c(cc1Cc1cc(N3CCOCC3)cc(Cl)c1F)c(=O)c(C(=O)O)cn2[C@H](CO)[C@H](C)OC [Example 28, 6-[3-chloro-2-fluoro-5-(morpholin-4-yl)benzyl]-1-((1R,2S)-1-hydroxymethyl-2-methoxypropyl)-7-methoxy-4-oxo-1,4-dihydroquinoline-3-carboxylic acid] showed an IC50 of less than 10 nM.
For COCC[C@@H](CO)n1cc(C(=O)O)c(=O)c2cc(Cc3cc(N4CCOCC4)cc(Cl)c3F)c(OC)cc21 [Example 29, 6-[3-chloro-2-fluoro-5-(morpholin-4-yl)benzyl]-1-((S)-1-hydroxymethyl-3-methoxypropyl)-7-methoxy-4-oxo-1,4-dihydroquinoline-3-carboxylic acid], the IC50 was less than 10 nM.
For COc1cc2c(cc1Cc1cc(N3CCC(O)CC3)cc(Cl)c1F)c(=O)c(C(=O)O)cn2[C@H](CO)C(C)C [Example 32, 6-[3-chloro-2-fluoro-5-(4-hydroxypiperidin-1-yl)benzyl]-1-((S)-1-hydroxymethyl-2-methylpropyl)-7-methoxy-4-oxo-1,4-dihydroquinoline-3-carboxylic acid], the IC50 was less than 10 nM.
Work on CCc1cc2c(cc1Cc1cc(N3CCOCC3)cc(Cl)c1F)c(=O)c(C(=O)O)cn2[C@H](CO)[C@@H](C)OC [Example 34, 6-[3-chloro-2-fluoro-5-(morpholin-4-yl)benzyl]-7-ethyl-1-((1R,2R)-1-hydroxymethyl-2-methoxypropyl)-4-oxo-1,4-dihydroquinoline-3-carboxylic acid] yielded an IC50 of less than 10 nM.
CCc1cc2c(cc1Cc1cc(N3CCOCC3)cc(Cl)c1F)c(=O)c(C(=O)O)cn2[C@H](CO)[C@H](C)OC [Example 35, 6-[3-chloro-2-fluoro-5-(morpholin-4-yl)benzyl]-7-ethyl-1-((1R,2S)-1-hydroxymethyl-2-methoxypropyl)-4-oxo-1,4-dihydroquinoline-3-carboxylic acid] was tested, and the IC50 was 10 to 100 nM.
COc1cc2c(cc1Cc1cc(-c3ccccn3)cc(Cl)c1F)c(=O)c(C(=O)O)cn2[C@H](CO)C(C)C [Example 36, 6-[3-chloro-2-fluoro-5-(pyridin-2-yl)benzyl]-1-((S)-1-hydroxymethyl-2-methylpropyl)-7-methoxy-4-oxo-1,4-dihydroquinoline-3-carboxylic acid] was tested, and the IC50 was less than 10 nM.
COc1cc2c(cc1Cc1cc(-c3nccs3)cc(Cl)c1F)c(=O)c(C(=O)O)cn2[C@H](CO)C(C)C [Example 37, 6-[3-chloro-2-fluoro-5-(thiazol-2-yl)benzyl]-1-((S)-1-hydroxymethyl-2-methylpropyl)-7-methoxy-4-oxo-1,4-dihydroquinoline-3-carboxylic acid] showed an IC50 of 10 to 100 nM.
CCO[C@H](C)[C@@H](CO)n1cc(C(=O)O)c(=O)c2cc(Cc3cc(N4CCOCC4)cc(Cl)c3F)c(CC)cc21 [Example 38, 6-[3-chloro-2-fluoro-5-(morpholin-4-yl)benzyl]-1-[(1R,2R)-2-ethoxy-1-(hydroxymethyl)propyl]-7-ethyl-4-oxo-1,4-dihydroquinoline-3-carboxylic acid] showed an IC50 of less than 10 nM.
For CCOC[C@@H](CO)n1cc(C(=O)O)c(=O)c2cc(Cc3cc(N4CCCC4=O)cc(Cl)c3F)c(OC)cc21 [Example 39, 6-[3-chloro-2-fluoro-5-(2-oxopyrrolidin-1-yl)benzyl]-1-((R)-1-ethoxymethyl-2-hydroxyethyl)-7-methoxy-4-oxo-1,4-dihydroquinoline-3-carboxylic acid], the IC50 was less than 10 nM.
In the case of CCO[C@H](C)[C@@H](CO)n1cc(C(=O)O)c(=O)c2cc(Cc3cc(N4CCCC4=O)cc(Cl)c3F)c(CC)cc21 [Example 40, 6-[3-chloro-2-fluoro-5-(2-oxopyrrolidin-1-yl)benzyl]-1-[(1R,2R)-2-ethoxy-1-(hydroxymethyl)propyl]-7-ethyl-4-oxo-1,4-dihydroquinoline-3-carboxylic acid], the IC50 is reported as 10 to 100 nM.
For CCc1cc2c(cc1Cc1cc(N3CCCC3=O)cc(Cl)c1F)c(=O)c(C(=O)O)cn2[C@H](CO)[C@@H](C)OC [Example 41, 6-[3-chloro-2-fluoro-5-(2-oxopyrrolidin-1-yl)benzyl]-7-ethyl-1-((1R,2R)-1-hydroxymethyl-2-methoxypropyl)-4-oxo-1,4-dihydroquinoline-3-carboxylic acid], the IC50 was 10 to 100 nM.
